How the values were obtained:
[1] = target: EGFR mutant L858R Ba/F3 cells (Homo sapiens, UniProt P00533, L858R, cells depend on it); assay: Ba/F3 cell proliferation (Cell Titer Glo), EGFR L858R; format: cell-based, murine; conditions: 72 hours exposure, read-out: L858R BaF3 (μM), inhibitory activity against EGFR mutants
Text: (§1) The EGFR mutant L858R Ba/F3 cells have been previously described (Zhou, W., et al. Nature 462, 2009, 1070-1074). The EGFR C797S and C775S mutations were introduced via site directed mutagenesis using the Quick Change Site-Directed Mutagenesis kit into a vector containing EGFR L858R mutation (Stratagene; La Jolla, CA) according to the manufacturer's instructions. All constructs were confirmed by DNA sequencing. The constructs were then shuttled into the retroviral vector JP1540 by either using the Cre-recombination system (Agilent Technologies, Santa Clara, CA) or the In-fusion HD Cloning kit (Takara Bio USA, Inc.; Mountain view, CA). Ba/F3 cells were then infected with retrovirus per standard protocols, as described previously (Zhou, et al, Nature 2009). Stable clones were obtained by selection in puromycin (2 ug/ml). All BaF/3 mutant cells were maintained in RPMI 1640 (Cellgro; Mediatech Inc., Herndon, CA) supplemented with 10% FBS, 100 units/mL penicillin, 100 units/mL streptomycin.
(§2) Growth and inhibition of growth was assessed by the Cell Titer Glo assay (Promega, Madison, WI) and was performed according to the manufacturer's instructions. The Cell Titer Glo assay is a luminescence-based method used to determine the number of viable cells based on quantitation of the ATP present, which is directly proportional to the amount of metabolically active cells present. Ba/F3 cells of different EGFR genotypes were exposed to compounds for 72 hours and the number of cells used per experiment was determined empirically as has been previously established (Zhou, et al., Nature 2009). All experimental points were set up in triplicates in 384-well plates. […] The curves were fitted using a non-linear regression model with a sigmoidal dose response.
(§3) For inhibitory activity against EGFR mutants, the following designations are used: ≤0·25 μM=A, 0·25 μM˜0.5 μM=B, 0.5 μM˜2.5 μM=C, ≥2.5 μM=D.

[2] = target: EGFR L858R/C797S Ba/F3 cells (Homo sapiens, UniProt P00533, C797S/L858R, cells depend on it); assay: Ba/F3 cell proliferation (Cell Titer Glo), EGFR L858R/C797S; format: cell-based, murine; conditions: 72 hours exposure, read-out: L858R/C797S (μM), inhibitory activity against EGFR mutants
Text: as §1, §2, §3

Sequence of EGFR L858R/C797S Ba/F3 cells (P00533 whole entry C797S/L858R): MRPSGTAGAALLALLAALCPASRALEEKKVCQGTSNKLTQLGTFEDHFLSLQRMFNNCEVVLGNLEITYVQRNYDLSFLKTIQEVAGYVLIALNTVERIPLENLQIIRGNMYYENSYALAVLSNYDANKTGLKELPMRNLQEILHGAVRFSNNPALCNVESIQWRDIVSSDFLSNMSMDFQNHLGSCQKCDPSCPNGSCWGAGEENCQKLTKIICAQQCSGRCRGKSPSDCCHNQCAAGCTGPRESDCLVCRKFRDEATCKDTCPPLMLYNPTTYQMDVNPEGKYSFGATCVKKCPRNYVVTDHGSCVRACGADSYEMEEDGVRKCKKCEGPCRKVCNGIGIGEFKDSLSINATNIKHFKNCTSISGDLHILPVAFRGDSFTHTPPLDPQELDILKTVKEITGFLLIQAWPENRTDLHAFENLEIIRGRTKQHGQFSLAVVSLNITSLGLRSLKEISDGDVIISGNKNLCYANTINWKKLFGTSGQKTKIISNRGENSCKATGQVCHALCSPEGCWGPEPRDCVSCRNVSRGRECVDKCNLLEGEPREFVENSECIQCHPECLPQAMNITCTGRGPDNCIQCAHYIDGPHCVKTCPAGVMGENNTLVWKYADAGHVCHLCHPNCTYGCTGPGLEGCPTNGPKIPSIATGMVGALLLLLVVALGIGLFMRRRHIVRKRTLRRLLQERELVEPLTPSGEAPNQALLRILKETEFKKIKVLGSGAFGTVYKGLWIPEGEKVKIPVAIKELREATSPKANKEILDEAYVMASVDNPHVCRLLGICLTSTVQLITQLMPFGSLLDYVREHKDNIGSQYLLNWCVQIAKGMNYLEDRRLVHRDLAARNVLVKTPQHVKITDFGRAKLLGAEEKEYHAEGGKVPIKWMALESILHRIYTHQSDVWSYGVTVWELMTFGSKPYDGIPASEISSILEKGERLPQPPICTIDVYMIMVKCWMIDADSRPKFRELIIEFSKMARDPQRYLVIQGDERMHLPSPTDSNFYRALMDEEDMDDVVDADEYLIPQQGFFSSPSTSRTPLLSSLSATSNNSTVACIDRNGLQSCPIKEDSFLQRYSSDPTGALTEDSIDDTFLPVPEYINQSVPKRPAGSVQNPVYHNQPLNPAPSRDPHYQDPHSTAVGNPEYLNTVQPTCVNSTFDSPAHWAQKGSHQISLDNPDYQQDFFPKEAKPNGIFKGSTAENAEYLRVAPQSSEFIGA
Sequence of EGFR mutant L858R Ba/F3 cells (P00533 whole entry L858R, the tested form may be a part): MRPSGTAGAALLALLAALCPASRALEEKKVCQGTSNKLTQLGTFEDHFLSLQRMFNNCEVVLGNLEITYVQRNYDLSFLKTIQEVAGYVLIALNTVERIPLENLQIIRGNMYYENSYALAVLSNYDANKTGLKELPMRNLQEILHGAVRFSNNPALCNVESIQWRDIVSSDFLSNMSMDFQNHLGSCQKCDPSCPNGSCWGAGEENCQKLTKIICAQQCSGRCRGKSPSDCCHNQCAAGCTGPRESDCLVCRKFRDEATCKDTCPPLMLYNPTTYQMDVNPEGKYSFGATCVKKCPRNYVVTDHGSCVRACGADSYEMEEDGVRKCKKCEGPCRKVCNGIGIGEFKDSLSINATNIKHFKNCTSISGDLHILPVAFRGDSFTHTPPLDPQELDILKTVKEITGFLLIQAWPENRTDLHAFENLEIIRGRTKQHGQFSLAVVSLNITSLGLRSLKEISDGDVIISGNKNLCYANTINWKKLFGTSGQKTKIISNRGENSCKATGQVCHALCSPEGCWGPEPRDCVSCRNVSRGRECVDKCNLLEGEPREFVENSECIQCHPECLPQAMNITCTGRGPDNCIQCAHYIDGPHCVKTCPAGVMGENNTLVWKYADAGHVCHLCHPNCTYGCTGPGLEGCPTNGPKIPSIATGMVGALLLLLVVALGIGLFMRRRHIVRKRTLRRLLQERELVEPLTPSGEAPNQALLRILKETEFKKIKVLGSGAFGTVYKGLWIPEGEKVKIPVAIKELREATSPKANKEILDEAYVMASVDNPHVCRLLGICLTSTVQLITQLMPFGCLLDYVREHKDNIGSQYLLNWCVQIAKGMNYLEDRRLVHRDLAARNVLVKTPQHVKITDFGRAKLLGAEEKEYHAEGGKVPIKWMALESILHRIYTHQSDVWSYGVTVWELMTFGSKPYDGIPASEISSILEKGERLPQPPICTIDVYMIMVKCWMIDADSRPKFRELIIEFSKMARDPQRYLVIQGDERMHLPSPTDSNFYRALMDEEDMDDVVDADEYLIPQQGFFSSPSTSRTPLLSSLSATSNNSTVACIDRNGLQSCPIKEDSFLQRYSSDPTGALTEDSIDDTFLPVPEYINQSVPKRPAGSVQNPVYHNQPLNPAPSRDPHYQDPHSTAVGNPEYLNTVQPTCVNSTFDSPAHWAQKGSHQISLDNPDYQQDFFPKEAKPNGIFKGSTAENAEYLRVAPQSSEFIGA

SMILES | GI50 [1] [µM] | GI50 [2] [µM]
C=CC(=O)N1CCN(c2cc3cnc(Nc4ccc(CC5CN(S(C)(=O)=O)C5)cc4)nc3n(C)c2=O)c2cccc(C)c21 [Compound 048, 8-methyl-6-(5-methyl-4-prop-2-enoyl-2,3-dihydroquinoxalin-1-yl)-2-[4-[(1-methylsulfonylazetidin-3-yl)methyl]anilino]pyrido[2,3-d]pyrimidin-7-one] | ≤ 0.25 | ≤ 0.25
C=CC(=O)N1CCN(c2cc3cnc(Nc4ccc(N5CCC(O)CC5)cc4)nc3n(C)c2=O)c2cccc(C)c21 [Compound 027, 2-[4-(4-hydroxy-1-piperidyl)anilino]-8-methyl-6-(5-methyl-4-prop-2-enoyl-2,3-dihydroquinoxalin-1-yl)pyrido[2,3-d]pyrimidin-7-one] | ≤ 0.25 | ≤ 0.25
C=CC(=O)N1CCN(c2cc3cnc(Nc4ccc(OCCN(C)C)cc4)nc3n(CCO)c2=O)c2cccc(C)c21 [Compound 047, 2-[4-[2-(dimethylamino)ethoxy]anilino]-8-(2-hydroxyethyl)-6-(5-methyl-4-prop-2-enoyl-2,3-dihydroquinoxalin-1-yl)pyrido[2,3-d]pyrimidin-7-one] | ≤ 0.25 | ≤ 0.25
C=CC(=O)N1CCN(c2cc3cnc(Nc4ccc(OC5CN(C)C5)cc4)nc3n(C)c2=O)c2cccc(C)c21 [Compound 076] | ≤ 0.25 | ≤ 0.25
C=CC(=O)N1CCC(c2cc3cnc(Nc4cnn(CCO)c4)nc3n(C)c2=O)c2ccccc21 (stereo not drawn) [Compound 017, 2-[[1-(2-hydroxyethyl)pyrazol-4-yl]amino]-8-methyl-6-(1-prop-2-enoyl-3,4-dihydro-2H-quinolin-4-yl)pyrido[2,3-d]pyrimidin-7-one] | ≤ 0.25 | ≤ 0.25
C=CC(=O)N1CCN(c2cc3cnc(Nc4ccc(OCCN(C)C)cc4)nc3n(C)c2=O)c2cccc(C)c21 [Compound 033, 2-[4-[2-(dimethylamino)ethoxy]anilino]-8-methyl-6-(5-methyl-4-prop-2-enoyl-2,3-dihydroquinoxalin-1-yl)pyrido[2,3-d]pyrimidin-7-one] | ≤ 0.25 | ≤ 0.25
C=CC(=O)N1CCN(c2cc3cnc(Nc4ccc(N5CCN(C)CC5)cc4)nc3n(C)c2=O)C(c2ccccc2)C1 (stereo not drawn) [Compound 011, 8-methyl-2-[4-(4-methylpiperazin-1-yl)anilino]-6-(2-phenyl-4-prop-2-enoyl-piperazin-1-yl)pyrido[2,3-d]pyrimidin-7-one] | ≥ 2.5 | ≥ 2.5
C=CC(=O)N1CCN(c2cc3cnc(Nc4ccc(OCCN(C)C)cc4)nc3n(C3COC3)c2=O)c2cccc(C)c21 [Compound 060, 2-[4-[2-(dimethylamino)ethoxy]anilino]-6-(5-methyl-4-prop-2-enoyl-2,3-dihydroquinoxalin-1-yl)-8-(oxetan-3-yl)pyrido[2,3-d]pyrimidin-7-one] | 0.25 to 0.5 | 0.5 to 2.5
C=CC(=O)N1CCN(c2cc3cnc(Nc4cnn(CCO)c4)nc3n(C)c2=O)c2cccc(C)c21 [Compound 038] | ≤ 0.25 | ≤ 0.25
C=CC(=O)N1CCN(c2cc3cnc(N)nc3n(-c3ccc(CN4CCOCC4)cc3)c2=O)c2cccc(C)c21 [Compound 094, 2-amino-6-(5-methyl-4-prop-2-enoyl-2,3-dihydroquinoxalin-1-yl)-8-[4-(morpholinomethyl)phenyl]pyrido[2,3-d]pyrimidin-7-one] | ≤ 0.25 | ≤ 0.25
C=CC(=O)N1CCN(c2cc3cnc(Nc4ccc(OCCN(C)C)cc4)nc3n(C3CC(O)C3)c2=O)c2cccc(C)c21 (stereo not drawn) [Compound 042, 2-[4-[2-(dimethylamino)ethoxy]anilino]-8-(3-hydroxycyclobutyl)-6-(5-methyl-4-prop-2-enoyl-2,3-dihydroquinoxalin-1-yl)pyrido[2,3-d]pyrimidin-7-one] | ≤ 0.25 | ≤ 0.25
C=CC(=O)N1CCN(c2cc3cnc(Nc4ccc(N5CCN(C)CC5)cc4)nc3n(C)c2=O)C(=O)C1 [Compound 025, 8-methyl-2-[4-(4-methylpiperazin-1-yl)anilino]-6-(2-oxo-4-prop-2-enoyl-piperazin-1-yl)pyrido[2,3-d]pyrimidin-7-one] | ≥ 2.5 | ≥ 2.5
C=C(F)C(=O)N1CCN(c2cc3cnc(Nc4ccc(N5CCN(C)CC5)cc4)nc3n(C)c2=O)c2cccc(C)c21 [Compound 028] | ≤ 0.25 | 0.25 to 0.5
C=CC(=O)Nc1c(O)cccc1Oc1cc2cnc(Nc3ccc(N4CCN(C)CC4)cc3)nc2n(C)c1=O [Compound 064, N-[2-hydroxy-6-[8-methyl-2-[4-(4-methylpiperazin-1-yl)anilino]-7-oxo-pyrido[2,3-d]pyrimidin-6-yl]oxy-phenyl]prop-2-enamide] | ≤ 0.25 | 0.25 to 0.5
C=CC(=O)NC1CCCN(c2cc3cnc(Nc4cnn(CCO)c4)nc3n(C)c2=O)C1 (stereo not drawn) [Compound 015, N-[1-[2-[[1-(2-hydroxyethyl)pyrazol-4-yl]amino]-8-methyl-7-oxo-pyrido[2,3-d]pyrimidin-6-yl]-3-piperidyl]prop-2-enamide] | ≥ 2.5 | ≥ 2.5
C=CC(=O)N1CCN(c2cc3cnc(N)nc3n([C@H]3CC[C@](C)(O)CC3)c2=O)c2cccc(C)c21 [Compound 087, 6-(4-acryloyl-5-methyl-3,4-dihydroquinoxalin-1 (2H)-yl)-2-amino-8-((1r,4r)-4-hydroxy-4-methylcyclohexyl)pyrido[2,3-d]pyrimidin-7 (8H)-one] | ≤ 0.25 | ≤ 0.25
C=CC(=O)N1CCN(c2cc3cnc(Nc4ccc(OCCN5CCCC5)cc4)nc3n(C)c2=O)c2cccc(C)c21 [Compound 032] | ≤ 0.25 | ≤ 0.25
C=CC(=O)N1CCN(c2cc3cnc(Nc4ccc(OCCN(C)C)cc4)nc3n([C@H]3C[C@](C)(O)C3)c2=O)c2cccc(C)c21 [Compound 057, 2-[4-[2-(dimethylamino)ethoxy]anilino]-8-((1r,3r)-3-hydroxy-3-methyl-cyclobutyl)-6-(5-methyl-4-prop-2-enoyl-2,3-dihydroquinoxalin-1-yl)pyrido[2,3-d]pyrimidin-7-one] | ≤ 0.25 | ≤ 0.25
C=CC(=O)N1CCN(c2cc3cnc(Nc4cnn(C5CCN(C)CC5)c4)nc3n(C)c2=O)c2cccc(C)c21 [Compound 039, 8-methyl-2-[[1-(1-methyl-4-piperidyl)pyrazol-4-yl]amino]-6-(5-methyl-4-prop-2-enoyl-2,3-dihydroquinoxalin-1-yl)pyrido[2,3-d]pyrimidin-7-one] | ≤ 0.25 | ≤ 0.25
C=CC(=O)N1CCN(c2cc3cnc(Nc4ccc(N5CCN(C)CC5)cc4)nc3n(C)c2=O)C2CC21 (stereo not drawn) [Compound 024, 8-methyl-2-[4-(4-methylpiperazin-1-yl)anilino]-6-(5-prop-2-enoyl-2,5-diazabicyclo[4.1.0]heptan-2-yl)pyrido[2,3-d]pyrimidin-7-one] | ≥ 2.5 | ≥ 2.5
C=CC(=O)N1CCN(c2cc3cnc(NC4CC4)nc3n(CC3CCOC3)c2=O)c2cccc(C)c21 (stereo not drawn) [Compound 106, 2-(cyclopropylamino)-6-(5-methyl-4-prop-2-enoyl-2,3-dihydroquinoxalin-1-yl)-8-(tetrahydrofuran-3-ylmethyl)pyrido[2,3-d]pyrimidin-7-one] | ≤ 0.25 | 0.25 to 0.5
C=CC(=O)N1CCN(c2cc3cnc(Nc4cc(OC)ncc4C)nc3n(C)c2=O)c2cccc(C)c21 [Compound 063] | 0.25 to 0.5 | 0.5 to 2.5
C=CC(=O)N1CCN(c2cc3cnc(Nc4ccc(N5CCN(C)CC5)cn4)nc3n(C)c2=O)c2cccc(C)c21 [Compound 030] | ≤ 0.25 | ≤ 0.25
C=CC(=O)N1CCN(c2cc3cnc(Nc4ccccc4)nc3n(C3CC(OC)C3)c2=O)c2cccc(C)c21 (stereo not drawn) [Compound 084, 2-anilino-8-(3-methoxycyclobutyl)-6-(5-methyl-4-prop-2-enoyl-2,3-dihydroquinoxalin-1-yl)pyrido[2,3-d]pyrimidin-7-one] | ≤ 0.25 | ≤ 0.25
C=CC(=O)N1CCN(c2cc3cnc(NC4CC4)nc3n(C3CCN(C)CC3)c2=O)c2cccc(C)c21 [Compound 105, 2-(cyclopropylamino)-8-(1-methyl-4-piperidyl)-6-(5-methyl-4-prop-2-enoyl-2,3-dihydroquinoxalin-1-yl)pyrido[2,3-d]pyrimidin-7-one] | ≤ 0.25 | ≤ 0.25
C=CC(=O)N1CCN(c2cc3cnc(Nc4cccc(N5CCS(=O)(=O)CC5)c4)nc3n(C)c2=O)c2cccc(C)c21 [Compound 045] | ≤ 0.25 | ≤ 0.25
C=CC(=O)N1CCN(c2cc3cnc(Nc4ccc(N5CCN(C)CC5)nc4)nc3n(C)c2=O)c2cccc(C)c21 [Compound 031] | ≤ 0.25 | ≤ 0.25
